The target in series [1] is T1, BTK (Canis lupus familiaris, UniProt A0A8I3P3Z9).
T1 construct: from tissue; host or cells: blood of the treated dog
The experiment in a line: BTK occupancy in blood in the dog pemphigus foliaceus study. The settings on record: oral 500 mg daily, blood taken 24 hours after the first dose, read-out: level of BTK occupancy. It counts as in vivo.

Series [2] relates to pemphigus foliaceus. The experiment in a line: Dog pemphigus foliaceus study. It counts as in vivo.
The nature of series [3]: Stability of the free base on drying (thermal stability). It is filed as physicochemical. The settings on record: drying under vacuum, at less than 45° C. The text has this: Isolation of compound (I) as described in PCT Application No. PCT/US2013058614 is less than ideal for large scale synthesis and isolation and therefore handling and formulating of the resulting compound can present challenges. In addition, when isolated as described in PCT Application No. PCT/US2013058614, the isolated compound (I) retains a higher percentage of residual solvent after drying under vacuum at ambient temperature than that allowed under the International Conference on Harmonisation of Technical Requirements for Registration of Pharmaceuticals for Human Use (“ICH”) guidelines (e.g., -ICH limit for class 2 solvents ranges between 50-3880 ppm and for class 3 solvents <5000 ppm).
However, the solids obtained by this method contained high residual solvents (3.9 wt % isopropylacetate and 1.7 wt % heptane).

Series [4] concerns chronic SLE. The settings on record: cited from earlier work.
Series [5] relates to ANCA-associated vasculitis. The settings on record: cited from earlier work.
Series [6] concerns pemphigus vulgaris. The settings on record: cited from earlier work.

T1 sequence (A0A8I3P3Z9 1-664): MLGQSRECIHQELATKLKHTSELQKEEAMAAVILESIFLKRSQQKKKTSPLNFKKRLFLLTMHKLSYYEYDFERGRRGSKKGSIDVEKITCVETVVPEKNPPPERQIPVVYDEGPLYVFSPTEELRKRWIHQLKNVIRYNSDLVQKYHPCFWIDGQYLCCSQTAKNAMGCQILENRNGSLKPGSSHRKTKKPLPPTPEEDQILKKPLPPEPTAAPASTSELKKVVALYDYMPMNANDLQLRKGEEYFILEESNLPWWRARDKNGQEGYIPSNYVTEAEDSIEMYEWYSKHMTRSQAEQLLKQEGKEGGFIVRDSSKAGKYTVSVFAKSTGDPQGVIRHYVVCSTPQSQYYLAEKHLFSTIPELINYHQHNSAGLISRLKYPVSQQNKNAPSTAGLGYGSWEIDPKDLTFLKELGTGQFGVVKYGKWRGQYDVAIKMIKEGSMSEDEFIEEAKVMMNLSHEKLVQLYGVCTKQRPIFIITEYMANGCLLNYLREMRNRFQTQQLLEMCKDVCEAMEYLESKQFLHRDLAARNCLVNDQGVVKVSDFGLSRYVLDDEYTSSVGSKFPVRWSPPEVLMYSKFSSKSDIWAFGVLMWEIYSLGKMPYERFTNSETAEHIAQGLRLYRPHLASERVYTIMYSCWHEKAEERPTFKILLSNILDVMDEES

For `CC(C)(C)/C=C(\C#N)C(=O)N1CCC[C@@H](n2nc(-c3ccc(Oc4ccccc4)cc3F)c3c(N)ncnc32)C1` [(R,E)-2-(3-(4-amino-3-(2-fluoro-4-phenoxy-phenyl)-1H-pyrazolo[3,4-d]-pyrimidin-1-yl)piperidine-1-carbonyl)-4,4-dimethylpent-2-enenitrile], the receptor occupancy at 500 mg in series [1] is approximately 70%. For the same compound, the “Time to clinical response (improved eating and ambulation)” value in series [2] (30 kg Doberman, oral 500 mg daily, monotherapy) was “within three days”. In series [2] (dog with pemphigus foliaceus, single agent), the “Manifestation of pre-clinical response compared with systemic corticosteroid therapy” value was “as rapid and comparable to that observed with systemic corticosteroid therapy”. The “Corticosteroid-like adverse effects (polyuria, polydipsia, polyphagia, weight gain)” value in series [2] (dog, oral 500 mg daily) was “No well-known corticosteroid-like adverse effects”; in series [2] (dog, oral 500 mg daily, listed as (R,E)-2-(3-(4-amino-3-(2-fluoro-4-phenoxyphenyl)-1H-pyrazolo [3,4-d]-pyrimidin-1))), “none of the well-known corticosteroid-like adverse effects”. Further, in series [2] (dog, oral 500 mg daily, four weeks), the “Skin lesions by four weeks” value was “completely healed”. Moreover, the “Clinical status at one week follow up visit” value in series [2] (dog, oral 500 mg daily, one week) is “improved general health and commencement of pemphigus lesion healing”. In series [2] (dog, oral 500 mg daily, two weeks), the “Clinical status after two weeks of treatment” value was “general health of the dog was excellent and skin lesions continued to improve”.
As to `CC(C)(C=C(C#N)C(=O)N1CCC[C@@H](n2nc(-c3ccc(Oc4ccccc4)cc3F)c3c(N)ncnc32)C1)N1CCN(C2COC2)CC1` [Compound (I), 2-[(3R)-3-[4-amino-3-(2-fluoro-4-phenoxy-phenyl)pyrazolo[3,4-d]pyrimidin-1-yl]piperidine-1-carbonyl]-4-methyl-4-[4-(oxetan-3-yl)piperazin-1-yl]pent-2-enenitrile], the “Stability of free base (degradation products during drying)” value in series [3] is recorded as “thermal instability”; in series [3] (listed as free base form) it was “not very stable”.
Belimumab: an anti-Blys antibody: the “Effect on improvement of chronic SLE” value in series [4] is “modest and delayed effect on improvement”. In addition, the “Patients able to reduce corticosteroid use to <7.5 mg of prednisone” value in series [4] (week 40-52) is ≤ 21% of patients (Benlysta US Product.
For the compound Rituximab: anti-CD20 agent, the “Onset of effect” value in series [5] is given as “Rituximab has delayed effect in ANCA-”. In addition, in series [6], the “Onset of effect” value is reported as “Rituximab has delayed effect in pemphigus” and the “Time of maximal effect” value was “vulgaris with maximal effect at 8-12 weeks”.

The values above are taken from patent publication US11369613B2, “Salts and solid form of a BTK inhibitor” (PRINCIPIA BIOPHARMA INC., priority 2014, dated 2022).
